Earlier results, collected in patent US20190054079A1, “ENHANCEMENT OF IMPAIRED MOTOR AND MENTAL FUNCTIONS, USING DEXTROMETHORPHAN AND OXIDASE ENZYME INHIBITOR” (Avanir Pharmaceuticals, Inc., priority 2004, published 2019).

What was measured:
[1] = test system: patients suffering from neurological disorders (such as ALS); conditions: DM alone, late 1980's and early 1990's
P450-2D6 enzyme = P450-2D6 enzyme (Homo sapiens, UniProt P10635); conditions: among known drugs in Inaba et al 1985 and 1986
Sequence of P450-2D6 enzyme (P10635 whole entry): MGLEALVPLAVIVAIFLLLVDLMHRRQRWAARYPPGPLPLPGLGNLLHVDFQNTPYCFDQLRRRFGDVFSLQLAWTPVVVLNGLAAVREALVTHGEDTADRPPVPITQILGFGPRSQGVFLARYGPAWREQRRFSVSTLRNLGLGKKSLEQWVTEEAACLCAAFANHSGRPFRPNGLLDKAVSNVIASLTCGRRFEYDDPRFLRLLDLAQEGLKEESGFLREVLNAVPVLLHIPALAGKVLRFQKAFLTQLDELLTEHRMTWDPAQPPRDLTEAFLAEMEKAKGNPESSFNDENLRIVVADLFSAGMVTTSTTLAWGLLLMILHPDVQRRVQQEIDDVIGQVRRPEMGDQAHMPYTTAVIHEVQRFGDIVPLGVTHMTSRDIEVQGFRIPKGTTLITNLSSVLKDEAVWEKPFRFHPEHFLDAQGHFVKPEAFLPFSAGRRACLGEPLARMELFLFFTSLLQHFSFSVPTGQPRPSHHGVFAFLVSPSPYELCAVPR

SMILES | benefit in slowing progression of neurological diseases [1] | activity at NMDA receptors (NMDA receptors) | activity at sigma receptors (sigma receptors) | potency of P450-2D6 inhibition (P450-2D6 enzyme)
COc1ccc2c(c1)[C@@]13CCCC[C@H]1[C@@H](C2)N(C)CC3 [Dextromethorphan, (+)-3-methoxy-N-methylmorphinan] | did not show enough benefits | mildly suppresses activity | stimulates activity | 
C=C[C@H]1C[N@@]2CC[C@H]1C[C@@H]2[C@@H](O)c1ccnc2ccc(OC)cc12 [quinidine] |  |  |  | most potent P450-2D6 inhibitor
